{"source": "paper PMC9482650", "about": "“Quantitative fragmentomics allow affinity mapping of interactomes” (Nature Communications, 2022)", "key": {"HaCat cell extract preys": {"system": "HaCat cell extract preys", "test": "PDZ-AP-MS, biotinylated MBP-PDZ baits", "format": "binding, human", "summary_of_the_method": "(§1)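 Biotinylated His6-AviTag-MBP-PDZ baits, or MBP alone, saturated streptavidin resin and were then biotin-blocked. Each was incubated with 1 mg cell lysate for 2 h at 4 °C, washed, and eluted in 8 M urea. Eluates were digested with Lys-C/trypsin, run by nanoLC-MS/MS on an Orbitrap Elite (top20 CID) and searched against human SwissProt.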"}, "HeLa cell extract preys": {"system": "HeLa cell extract preys", "test": "PDZ-AP-MS, biotinylated MBP-PDZ baits", "format": "binding, human", "settings": "PDZ-AP-MS fold change of the PBM-protein prey", "summary_of_the_method": "as §1"}, "[1]": {"system": "Jurkat cell extract preys", "test": "PDZ-AP-MS, biotinylated MBP-PDZ baits", "format": "binding, human", "summary_of_the_method": "as §1"}, "DLG1_1/2": {"biological_target": "DLG1_1/2", "settings": "SPR; ref Kim et al 1998; cited from earlier work", "text": "Supplement 41467_2022_33018_MOESM4_ESM.xlsx, sheet \"reference DMI interactome\" | column: Affinity (mM); pKd, measured in literature"}, "[2]": {"settings": "PDZ-AP-MS fold change of the PBM-protein prey, bait MBP-PDZ DLG1_1"}, "[3]": {"settings": "PDZ-AP-MS fold change of the PBM-protein prey, bait MBP-PDZ DLG1_2"}, "[4]": {"settings": "PDZ-AP-MS fold change of the PBM-protein prey, bait MBP-PDZ SCRIB_1"}, "[5]": {"settings": "PDZ-AP-MS fold change of the PBM-protein prey, bait MBP-PDZ SCRIB_2"}, "[6]": {"settings": "PDZ-AP-MS fold change of the PBM-protein prey, bait MBP-PDZ SNX27"}, "[7]": {"settings": "PDZ-AP-MS fold change of the PBM-protein prey, bait MBP-PDZ TX1BP3"}, "[8]": {"settings": "bait DLG1_1 PDZ, fold change of prey"}, "[9]": {"settings": "bait DLG1_2 PDZ, fold change of prey"}, "[10]": {"settings": "bait SCRIB_1 PDZ, fold change of prey"}, "[11]": {"settings": "bait SCRIB_2 PDZ, fold change of prey"}, "[12]": {"settings": "bait SNX27 PDZ, fold change of prey"}, "[13]": {"settings": "bait TX1BP3 PDZ, fold change of prey"}}, "note": "Ends that are not written are not given here.", "data": [{"substance": "SSLQSLETSV-OH [ATP2B4]", "values": [{"measurement": "Fold changes, HaCat, DLG1_1", "setting": "HaCat cell extract preys; [2]", "value": 6.858}, {"measurement": "Fold changes, HaCat, DLG1_2", "setting": "HaCat cell extract preys; [3]", "value": 9.323}, {"measurement": "Fold changes, HaCat, SCRIB_1", "setting": "HaCat cell extract preys; [4]", "value": 1.193}, {"measurement": "Fold changes, HaCat, SCRIB_2", "setting": "HaCat cell extract preys; [5]", "value": 2.996}, {"measurement": "Fold changes, HaCat, SNX27", "setting": "HaCat cell extract preys; [6]", "value": 25.0597}, {"measurement": "Fold changes, HaCat, TX1BP3", "setting": "HaCat cell extract preys; [7]", "value": 1.007}, {"measurement": "Ratio DLG1_1/MBP", "setting": "HaCat cell extract preys; [8]", "value": 6.858}, {"measurement": "Ratio DLG1_2/MBP", "setting": "HaCat cell extract preys; [9]", "value": 9.323}, {"measurement": "Ratio SCRIB_1/MBP", "setting": "HaCat cell extract preys; [10]", "value": 1.193}, {"measurement": "Ratio SCRIB_2/MBP", "setting": "HaCat cell extract preys; [11]", "value": 2.996}, {"measurement": "Ratio SNX27/MBP", "setting": "HaCat cell extract preys; [12]", "value": 25.0597}, {"measurement": "Ratio TX1BP3/MBP", "setting": "HaCat cell extract preys; [13]", "value": 1.007}, {"measurement": "Fold changes, HeLa, DLG1_1", "setting": "HeLa cell extract preys; bait MBP-PDZ DLG1_1", "value": 1.011}, {"measurement": "Fold changes, HeLa, DLG1_2", "setting": "HeLa cell extract preys; bait MBP-PDZ DLG1_2", "value": 4.653}, {"measurement": "Fold changes, HeLa, SCRIB_1", "setting": "HeLa cell extract preys; bait MBP-PDZ SCRIB_1", "value": 16.1327}, {"measurement": "Fold changes, HeLa, SCRIB_2", "setting": "HeLa cell extract preys; bait MBP-PDZ SCRIB_2", "value": 1.595}, {"measurement": "Fold changes, HeLa, SNX27", "setting": "HeLa cell extract preys; bait MBP-PDZ SNX27", "value": 14.9763}, {"measurement": "Fold changes, HeLa, TX1BP3", "setting": "HeLa cell extract preys; bait MBP-PDZ TX1BP3", "value": 0.7931}, {"measurement": "Fold changes, Jurkat, DLG1_1", "setting": "[1]; [2]", "value": 3.92}, {"measurement": "Fold changes, Jurkat, DLG1_2", "setting": "[1]; [3]", "value": 17.9481}, {"measurement": "Fold changes, Jurkat, SCRIB_1", "setting": "[1]; [4]", "value": 13.9686}, {"measurement": "Fold changes, Jurkat, SCRIB_2", "setting": "[1]; [5]", "value": 1.428}, {"measurement": "Fold changes, Jurkat, SNX27", "setting": "[1]; [6]", "value": 34.2386}, {"measurement": "Fold changes, Jurkat, TX1BP3", "setting": "[1]; [7]", "value": 1.643}, {"measurement": "Ratio DLG1_1/MBP", "setting": "[1]; [8]", "value": 3.92}, {"measurement": "Difference log2", "setting": "[1]; bait DLG1_2 PDZ vs MBP, enrichment of prey", "value": 4.166}, {"measurement": "Ratio DLG1_2/MBP", "setting": "[1]; [9]", "value": 17.9481}, {"measurement": "Ratio SCRIB_1/MBP", "setting": "[1]; [10]", "value": 13.9686}, {"measurement": "Ratio SCRIB_2/MBP", "setting": "[1]; [11]", "value": 1.428}, {"measurement": "Ratio SNX27/MBP", "setting": "[1]; [12]", "value": 34.2386}, {"measurement": "Ratio TX1BP3/MBP", "setting": "[1]; [13]", "value": 1.643}, {"measurement": "pKd, measured in literature", "setting": "DLG1_1/2", "value": 8.785}]}]}
